From PubChem BioAssay AID1996
Converted amounts (≈) assume the structure as drawn.

Conditions: buffer; pH 7.4; 200.0 µM

Structure (SMILES) | solubility kinetic
CCC(OC(=O)c1nsc(Cl)c1Cl)C(=O)NCCOC (stereo not given) | > 51.2 µg/mL
Cc1cccc(C(=O)NCCCNC(=O)c2ccc(C)nc2)c1 | 44.1 µg/mL (≈ 142 µM)
C=CCNC(=O)N1CCc2[nH]c3ccc(F)cc3c2C1 | > 41 µg/mL
Cc1cc(C(=O)N2C(C)CCCC2C)no1 (stereo not given) | > 33.3 µg/mL
O=C(/C=C/c1cccnc1)c1cccc(O)c1 | 29.9 µg/mL (≈ 133 µM)
COc1ccc(C(=O)OCC(=O)NC(=O)NC2CCCC2)cc1[N+](=O)[O-] | 6.4 µg/mL (≈ 17.5 µM)
O=C(CNC(=O)c1ccco1)OCc1ccc(Br)cc1 | 40.5 µg/mL (≈ 120 µM)
CC(=O)c1c(C)n(-c2ccccc2Br)c2ccc(O)cc12 | 1 µg/mL (≈ 2.91 µM)
CCC(C)c1ccc(S(=O)(=O)N2CCN(c3ccccn3)CC2)cc1 (stereo not given) | < 0.3 µg/mL
O=S(=O)(c1ccccc1)N1CCN2CCCC2C1 (stereo not given) | > 40 µg/mL
Cc1cc2c(sc3ccccc32)c(C)n1.Cl | 3.7 µg/mL
CCc1ccc(NC(=O)C2(C)Cc3ccccc3C(=O)O2)cc1 (stereo not given) | > 46.4 µg/mL
CCN1CCN(CCC(=O)Nc2ccc(F)c(F)c2)CC1 | > 44.6 µg/mL
CCOC(CNc1ncnc2c1cnn2C)OCC | > 39.8 µg/mL
CC(C)(CNC(=O)Cc1ccc(Cl)cc1Cl)N1CCCCC1 | > 51.5 µg/mL
CC1CC1C(=O)OCC(=O)NC(=O)NC12CC3CC(CC(C3)C1)C2 (stereo not given) | 22.5 µg/mL (≈ 67.3 µM)
Cc1ccc(C(=O)COC(=O)c2cccc([N+](=O)[O-])c2)s1 | 7.1 µg/mL (≈ 23.3 µM)
CNS(=O)(=O)c1cccc(C(=O)OCC(=O)NC2CCCC2)c1 | > 51.1 µg/mL
O=c1[nH]c(=O)n(-c2cccc(F)c2)c(O)c1/C=C1\C=Nc2ccccc21 | 2.9 µg/mL (≈ 8.3 µM)
COCCN(C(=O)COC(=O)/C=C/c1cccc(C(F)(F)F)c1)c1c(N)n(CC(C)C)c(=O)[nH]c1=O | 5.7 µg/mL (≈ 11.1 µM)

Structure (SMILES) | solubility kinetic
CCCCCCCc1c(O)nc(SCCN(C)C)[nH]c1=O.Cl | > 52.5 µg/mL
Cc1cccc(-n2c(=O)c3c(C)c(C)sc3n(CC(N)=O)c2=O)c1 | > 51.5 µg/mL
Cc1ccc(CSCC(=O)Nc2ccccc2C(=O)O)cc1 | > 47.3 µg/mL
CCN(CC)C(=S)Oc1c(Cl)cccc1Cl | 2.2 µg/mL (≈ 7.91 µM)
N#Cc1cccc(Nc2c3c(nc4ccccc24)CCC3)c1 | 8.4 µg/mL (≈ 29.4 µM)
Cc1ccccc1N1CC(C(=O)NC2CCCC2)CC1=O (stereo not given) | > 43 µg/mL
Cc1cccc(NC(=O)c2cccc(NC(=O)c3ccccc3)c2)n1 | 7.1 µg/mL (≈ 21.4 µM)
O=C(NCc1ccccc1Br)c1ccc2c(c1)OCCO2 | 11.6 µg/mL (≈ 33.3 µM)
CCOC(=O)c1cc(-c2csc(-c3ccc(C(F)(F)F)cc3)n2)on1 | < 0.4 µg/mL
Cc1cccc2nc(-c3ccco3)oc(=O)c12 | 21.6 µg/mL (≈ 95.1 µM)
Cc1cc(NC(=O)CSc2nc3c(cc2C#N)CCCCC3)no1 | < 0.2 µg/mL
O=C(COc1ccccc1)N1CCCC1 | 26.7 µg/mL (≈ 130 µM)
CN(C)c1ccc(NC(=O)C[n+]2ccccc2)cc1.[Cl-] | > 43.8 µg/mL
Cl.OC(c1ccc(Cl)cc1)C(CN1CCOCC1)c1ccccc1 (stereo not given) | > 55.2 µg/mL
COC(=O)c1ccc(-c2noc(CN(C)CC3CCCCO3)n2)cc1 (stereo not given) | > 51.8 µg/mL
CCN(CC)CC.COc1ccc(-n2c(=S)[nH]c3c(sc(=S)n3-c3ccccc3)c2=O)c(OC)c1 | > 64.4 µg/mL
Cn1c(N)c(C(=O)COC(=O)c2ccc(C(F)(F)F)cc2)c(=O)n(C)c1=O | 15.2 µg/mL (≈ 39.4 µM)
O=C(CSC(=S)N1CCCC1)NCCc1ccccc1 | > 46.3 µg/mL
Cc1cccc(NC(=O)Nc2ccccn2)c1C | 1.2 µg/mL (≈ 4.97 µM)
C=CCc1c(C)[nH]c(=O)[nH]c1=O | > 24.9 µg/mL

Structure (SMILES) | solubility kinetic
CCc1ccc(N2CC(C(=O)Nc3cc(C)on3)CC2=O)cc1 (stereo not given) | 26 µg/mL (≈ 83 µM)
O=C(NCCOc1ccccc1)C1CCCCC1 | > 37.1 µg/mL
COc1ccc(OC)c(NC(=O)CCCC(=O)NC2CCCCC2)c1 | > 52.3 µg/mL
CC(C)(C)NC(=O)c1ccc2c(c1)C(=O)N(Cc1ccco1)C2=O | 46 µg/mL (≈ 141 µM)
COc1cccc(NC(=O)COC(=O)C2CCCCC2)c1 | > 43.7 µg/mL
N#Cc1ccccc1CN1C(=O)c2ccccc2S1(=O)=O | 0.8 µg/mL (≈ 2.68 µM)
CC(=O)Nc1ccc(NC2=CC(=O)c3ccccc3C2=O)cc1 | 1.1 µg/mL (≈ 3.59 µM)
Cc1ccc(C(=O)NCCCN2CCOCC2)cc1Cl | 42.5 µg/mL (≈ 143 µM)
Cc1ccc(NC(=O)COCC(=O)Nc2ccc(F)cc2)cc1 | 37.3 µg/mL (≈ 118 µM)
CC(OC(=O)/C(C#N)=C/c1ccco1)C(=O)N(C)c1ccccc1 (stereo not given) | 47.8 µg/mL (≈ 147 µM)
CC1CCc2sc(C(=O)NC(C)C3CCCO3)cc2C1 (stereo not given) | > 44 µg/mL
Cc1cc(C)nc(/N=C(\N)Nc2ccc(C(C)C)cc2)n1 | > 42.5 µg/mL
CCOC(=O)CCCC(=O)N1CCOCCOCCOCC1 | > 47.6 µg/mL
CN1C(=O)C2(OCCCO2)c2ccccc21 | 31.6 µg/mL (≈ 144 µM)
COc1ccc(O)c(/C=N/c2nc3ccccc3n2C)c1 | 15 µg/mL (≈ 53.3 µM)
CC1Oc2ccccc2N(CC(=O)N2CCCC2)C1=O (stereo not given) | > 41.1 µg/mL
O=C(NC1CCCCC1)C1CC(=O)N(CCc2ccc(F)cc2)C1 (stereo not given) | 45 µg/mL (≈ 135 µM)
CC(=O)N(c1ccccc1C)S(=O)(=O)c1ccc(Cl)cc1 | 34.3 µg/mL (≈ 106 µM)
Cc1csc(NC(=O)c2ccc(C)s2)n1 | 25.9 µg/mL (≈ 109 µM)
O=[N+]([O-])c1ccccc1-c1ccc(C(=S)N2CCCC2)o1 | 9.4 µg/mL (≈ 31.1 µM)
